According to article PMC12299140, “Synthetic Analogs of the Alkaloid Cassiarin A with Enhanced Antimalarial Activity” (Pharmaceuticals, 2025):
Like-named read-outs stand apart in the source and are kept apart here.

Assays:
[1] = system: chloroquine-sensitive Plasmodium falciparum strain 3D7; assay: Malstat assay, chloroquine-sensitive strain 3D7; type: cell-based; conditions: for IC50 / IC90: Plasmodium falciparum; for IC50: read-out: P. falciparum 3D7 IC50; for IC90: read-out: P. falciparum 3D7 IC90
Method: (§1) The chloroquine-sensitive Plasmodium falciparum strain 3D7 and the chloroquine-resistant strain Dd2 were cultivated in vitro at 5% hematocrit in complete medium comprising RPMI 1640/HEPES medium supplemented with 0.5% w/w Albumax II, 10 µg/mL gentamicin, and 50 µg/mL hypoxanthine. Cultures were maintained at 37 °C in an atmosphere of 5% CO2, 5% O2, and 90% N2. To enrich parasites in the ring-stage, an asexual blood stage culture was synchronized. The culture was centrifuged at 1000× g for 3 min, and the supernatant was discarded. The cell pellet was resuspended in 5% sorbitol and incubated at room temperature for 10 min. Subsequently, the culture was centrifuged, and the pellet was washed with RPMI 1640/HEPES medium. After a final centrifugation step, the cell pellet was resuspended in fresh complete medium and returned to standard culture conditions for further cultivation. Human serum and erythrocyte concentrate were obtained from the Department of Transfusion Medicine, University Hospital Aachen, Germany. Donor sera and blood samples were pooled and kept anonymous. The work with human blood was approved by the Ethics Commission of the RWTH University Hospital (EK 007/13).
(§2) Synchronized ring-stage cultures of the P. falciparum strains 3D7 and Dd2 mixed with the compound were plated in triplicate into 96-well plates (200 µL/well) at a parasitemia of 1%. […] In addition, a dilution series with chloroquine with concentrations between 500 nM and 4 nM was used as a positive control and 0.5% v/v DMSO was used as a negative control. The cultures were then incubated under standard culture conditions for 72 h. Following incubation, 20 µL of the culture was transferred in triplicate to a new 96-well plate and mixed with 100 µL of Malstat reagent (0.1% v/v Triton X-100, 1 g L-lactate, 0.33 g Tris and 33 mg of 3-acetylpyridine adenine dinucleotide in 100 mL distilled water, pH 9.0) and 20 µL mixture of NBT and diaphorase (1:1 v/v; 1 mg/mL stock each). After colour development in the wells, absorbance was measured at OD630nm using a Tecan Plate Reader. The IC50 and IC90 values of the compounds were then determined using the GraphPad Prism software.

[2] = system: chloroquine-resistant P. falciparum strain Dd2; assay: Malstat assay, chloroquine-resistant strain Dd2; type: cell-based, Plasmodium falciparum; conditions: for RI, resistance index = IC50 (Dd2)/IC50 (3D7): Dd2 vs 3D7; for IC50 / IC90: Plasmodium falciparum; for IC50: read-out: IC50 P. falciparum Dd2; for IC90: read-out: IC90 P. falciparum Dd2
Method: as §1, §2

[3] = system: Human umbilical vein endothelial cells (HUVECs); conditions: cited from earlier work
[4] = system: Human umbilical vein endothelial cells (HUVECs); assay: Cytotoxicity assay (CellTiter-Blue cell viability assay); type: cell-based; conditions: HUVEC, 72 h
Method: Human umbilical vein endothelial cells (HUVECs) were purchased from Promocell (Heidelberg, Germany) and cultivated with ECGM Kit enhanced (PELO Biotech, Planegg, Germany) supplemented with 10% (FCS) (PAA Laboratories, Cölbe, Germany) and 1% penicillin/streptomycin/amphotericin B (all purchased from PAN Biotech). Cells were cultured at 37 °C with 5% CO2 with constant humidity. Cell proliferation was assessed using the CellTiter-Blue cell viability assay (Promega, Madison, WI, USA). Cells were treated as indicated for 72 h and 4 h before termination CellTiter-Blue reagent was added in a ratio of 1:10. Fluorescence intensity was determined by using the SpectraFluor Plus plate reader (Tecan, Männedorf, Switzerland) at 550 nm excitation and 595 nm emission wavelength. Fluorescence intensity is proportional to the cell number. Non-linear regression was carried out using the log(inhibitor) vs. response–variable slope (four parameters) function of GraphPad Prism (San Diego, CA, USA).
Figure 4 Cytotoxic effects of cassiarin A (5) and analogs 11b, 11c, and 11d on proliferation of HUVEC assessed by CellTiter-Blue^TM assay. IC50 values were determined using the log(inhibitor) vs. response—variable slope (four parameters) function of GraphPad Prism (10.4.0). Data are shown as mean ± SD.

[5] = chloroquine-sensitive strain 3D7, Malstat assay, 72 h
[6] = chloroquine-resistant strain Dd2, Malstat assay, 72 h

| IC50 [1, 5] [nM] | IC90 [1, 5] [nM] | SMILES | RI, resistance index = IC50 (Dd2)/IC50 (3D7) [2] | IC50 [2, 6] [nM] | IC90 [2, 6] [nM] | IC50 [4] [nM] | also measured |
| --- | --- | --- | --- | --- | --- | --- | --- |
| – | – | CCN(CC)CCCC(C)Nc1ccnc2cc(Cl)ccc12 (centres unmarked) [Compound 2, chloroquine, reference compound] | 5.3 | – | – | – | IC50 ([1]; 3D7, 72 h): 30 ± 10 nM; IC90 ([1]; 3D7, 72 h): 50 ± 10 nM; IC50 ([2]; DD2, 72 h): 160 ± 40 nM; IC90 ([2]; DD2, 72 h): 230 ± 130 nM; selectivity index (=IC50 (HUVEC)/IC50 (3D7)) [3]: 1987 |
| 31900 ± 11500 | 53300 ± 10500 | CC1=Cc2nc(CN)cc3cc(O)cc(c23)O1 [Compound 11a, 5-(Aminomethyl)-2-methylpyrano[2,3,4-ij]isoquinolin-8-ol] | – | – | – | – | – |
| 2000 ± 180 | 2900 ± 530 | Oc1cc2c3c(nc(-c4ccccc4)cc3c1)C=C(c1ccccc1)O2 [Compound 11b, 2,5-Diphenylpyrano[2,3,4-ij]isoquinolin-8-ol] | – | – | – | 2220 | – |
| 2100 ± 380 | 2700 ± 220 | OCc1cc2cc(O)cc3c2c(n1)C=C(c1ccccc1)O3 [Compound 11e, 5-(Hydroxymethyl)-2-phenylpyrano[2,3,4-ij]isoquinolin-8-ol] | – | – | – | – | – |
| 1700 ± 200 | 3400 ± 1280 | OCCc1cc2cc(O)cc3c2c(n1)C=C(c1ccccc1)O3 [Compound 11f, 5-(2-Hydroxyethyl)-2-phenylpyrano[2,3,4-ij]isoquinolin-8-ol] | – | – | – | – | – |
| 1900 ± 190 | 2500 ± 490 | CCCCC1=Cc2nc(C)cc3cc(O)cc(c23)O1 [Compound 18a, 2-Butyl-5-methylpyrano[2,3,4-ij]isoquinolin-8-ol] | – | – | – | – | – |
| 2200 ± 580 | 3200 ± 680 | COc1cc2c3c(nc(C)cc3c1)C=C(c1ccc(OCCO)cc1)O2 [Compound 18b, 2-(4-(8-Methoxy-5-methylpyrano[2,3,4-ij]isoquinolin-2-yl)phenoxy)ethan-1-ol] | – | – | – | – | – |
| ≥ 100000 | ≥ 100000 | C#CCOc1cc2c3c(nc(C)cc3c1)C=C(c1ccccc1)O2 [Compound 24, 5-Methyl-2-phenyl-8-(prop-2-in-1-yloxy)pyrano[2,3,4-ij]isoquinoline] | – | – | – | – | antiplasmodial activity (in words) ([1]; strain 3D7, Malstat assay): complete loss of antiplasmodial activity |

| SMILES | IC50 [1, 5] [nM] | IC90 [1, 5] [nM] | RI, resistance index = IC50 (Dd2)/IC50 (3D7) [2] | IC50 [2, 6] [nM] | IC90 [2, 6] [nM] | IC50 [4] [nM] | also measured |
| --- | --- | --- | --- | --- | --- | --- | --- |
| CC1=Cc2nc(C)cc3cc(O)cc(c23)O1 [Compound 5, Cassiarin A] | 9600 ± 630 | 16400 ± 3070 | 1.4 | 13600 ± 3950 | 20500 ± 11900 | 16400 | – |
| Cc1cc2cc(O)cc3c2c(n1)C=C(c1ccccc1)O3 [Compound 11c, 5-Methyl-2-phenylpyrano[2,3,4-ij]isoquinolin-8-ol] | 400 ± 40 | 500 ± 110 | 4.3 | 1700 ± 740 | 2100 ± 1080 | 1230 | – |
| NCc1cc2cc(O)cc3c2c(n1)C=C(c1ccccc1)O3 [Compound 11d, 5-(Aminomethyl)-2-phenylpyrano[2,3,4-ij]isoquinolin-8-ol] | 600 ± 110 | 1000 ± 280 | 2.0 | 1200 ± 320 | 1800 ± 170 | 680 | – |
| Cc1cc2cc(O)cc3c2c(n1)C=C(c1ccc(O)cc1)O3 [Compound 11g, 2-(4-Hydroxyphenyl)-5-methylpyrano[2,3,4-ij]isoquinolin-8-ol] | 400 ± 30 | 900 ± 540 | 4.8 | 1900 ± 1010 | 5900 ± 3420 | – | – |
| COC(=O)c1ccc(C2=Cc3nc(C)cc4cc(O)cc(c34)O2)cc1 [Compound 18c, Methyl 4-(8-hydroxy-5-methylpyrano[2,3,4-ij]isoquinolin-2-yl)benzoate] | 200 ± 50 | 400 ± 140 | 2.0 | 400 ± 210 | 800 ± 580 | – | – |
